US9399645B2, “Inhibitors of HIV replication” (Boehringer Ingelheim International GmbH, priority 2011, dated 2016)

Key:
HIV-1 = experiment: C8166 HIV-1 Luciferase Assay (EC50); type: cell-based; details: Human immunodeficiency virus 1, C8166, 72 h
Procedure: C8166 HIV-1 Luciferase Assay (Ec50)
The assay used to measure inhibition of HIV replication is as described in WO 2004/050643, pages 73-75, incorporated herein by reference, with the following modifications:
Serial dilutions of HIV-1 inhibitors are prepared in complete media from DMSO stock solutions. Eleven serial dilutions of desired concentration are prepared in a 1 mL deep well titer plate (96 wells). The 12th well contains complete media with no inhibitor and serves as the positive control. All samples contain the same concentration of DMSO (<0.1% DMSO). Inhibitor is added, to triplicate wells, of a 96 well tissue culture treated clear view black microtiter plate (Corning Costar catalogue #3904). The total volume per well is 200 μL of media containing the cells and inhibitor. The last row is reserved for uninfected C8166 LTRIuc cells to serve as the background blank control and the first row is media alone.
Count C8166 LTRIuc cells and place in a minimal volume of complete RPMI 1640 in a tissue culture flask (ex. 30×10^6 cells in 10 mL media/25 cm^2 flask). Infect cells with HIV-1 at a moi of 0.005. Incubate cells for 1.5 h at 37° C. on a rotating rack in a 5% CO2 incubator. Resuspend cells in complete RPMI to give a final concentration of 25,000-cells/well. Add cells to wells of 96 well microtiter plate containing inhibitors. Add 25,000 uninfected C8166-LTRIuc cells/well in 200 μL complete RPMI to last row for background control. Incubate cells at 37° C. in 5% CO2 incubator for 3 days.
50 μL Steady Glo (luciferase substrate T112=5 hours Promega catalogue # E2520) is added to each well of the 96 well plate. The relative light units (RLU) of luciferase are determined using a luminescence plate reader. The calculated % inhibition values are used to determine EC50, slope factor (n) and maximum inhibition (Imax).

[1] = Caco-2 Permeability Assay; type: in vitro ADME; details: human, apparent permeability A to B, compound at 10 μM, apical buffer pH 6.0, basolateral buffer pH 7.4, read-out: Papp (cm/sec, *10^−6)
Source text: Caco-2 Permeability Assay Caco-2 cells are purchased from Cell Culture Services as frozen instant cells at a concentration of 1*10^7 cells/vial. DMEM+glutamax-I culture media is purchased from Gibco (10569). Fetal bovine serum (FBS) is purchased from HyClone (SH30396.03). Pennicilin/Streptomycin antibiotics are purchased from Gibco (15140). MEM non-essential amino acids are purchased from Gibco (11140). Hank's balanced salt solution (HBSS) is purchased from Gibco (14025). Bovine serum albumin (BSA) is purchased from Sigma-Aldrich (A7906). MES low moisture is purchased from Sigma-Aldrich (M3671). HEPES is purchased from Sigma-Aldrich (H3375). Dimethyl Sulfoxide (DMSO) is purchased from EMD (MX1457-6). Complete DMEM media is prepared by adding 1 L of FBS, 100 mL of pen/strep and 110 mL of MEM non essential amino acids to 10 L of DMEM+glutamax-I. […] Caco-2 cells are seeded on HTS transwell 24-well plates purchased from Corning (3397). These polycarbonate membrane plates have a diameter of […] and pore size of 0.4 μm. The Caco-2 cells vial is thawed in a 37° C. water bath until only a small ice pellet is left. The vial is then transferred to the laminar flow hood and its exterior is extensively washed with 70% ethanol. The total content of the vial (2 mL) is transferred into a 50 mL tube containing 38 mL of complete DMEM. […] The seeding is done by the Hamilton star robotic station which is controlled with the Venus program. Each well will receive 600 μL of complete DMEM on its basolateral side and 200 μL of cells on its apical side. Each well receives 50 000 cells. The 24-well plates are then returned to an automated Liconic STX110 incubator set at 37° C., 5% CO2 and 100% humidity. The culture media for the cells is changed every two days except on weekends. These cells are maintained for a period of two weeks prior to the running of the permeability assay. Permeability assays are usually performed between day 15 and 18 after the initial seeding. […] Controls for the assay are mannitol for tight junction determination and Digoxin for efflux transporter (p-glycoprotein) expression. On the day of the assay, each compound is diluted to 10 μM in the buffer (apical for A to B). 6 μl of the 5 mM DMSO stock is added to 3 mL of the buffer in a 24-well 10 mL deep plate covered with a lid. The plate containing all the diluted compounds is spun for 10 min at 3000 rpm in a Rotanta 46 RSC centrifuge from Hettich to remove unsoluble compound. This dilution is used to add at the start of the incubation. Each compound is tested in duplicate. On the day of the assay, the culture media of the 24-well plate is removed and replaced with warm HBSS. The HBSS is then also removed and the Apical and Basolatral buffer are added to their respective side of the transwells. These steps are performed by the Hamilton Star robotic station. The plate is then placed in a 37° C. incubator and is left to equilibrate for 30 min. After 30 min of incubation a background sample (25 μL from each well) is taken from the receiver side (Basolateral for A to B), and replenished with warm buffer. These samples and all others afterwards are kept in a 96-well 1 mL plate. To start the assay, the donor compartment (apical for A to B) is emptied and replaced with new buffer containing the compound at 10 μM. Once the compounds are added, the plate is returned to the 37° C. incubator and the timer is started. In order to determine how much compound is actually added to each well, a 50 μL sample is taken from each compound dilution, this sample is refered to as the load. These steps and the following are performed by the Tecan Freedom EVO robotic station controlled via the Gemini software. For A-to-B Assay: Samples (190 μL) are taken from each basolateral (receiver) chamber at time points 0, 60, 120 and 180 min or at time points 0, 30, 60 and 90 min. From the 190 μL taken, 50 μL is transferred to the receiving plate and 140 μL is discarded.

Compound	EC50 (HIV-1)	Papp A→B at 10 μM [1]
CC[C@H]1C[C@@H](n2c(=O)nc(-c3cnn(C)c3)c3oc4ccc(-c5cn(C)cn5)cc4c32)CCO1 [Compound 1091]	15.4 nM	7.9 ×10⁻⁶ cm/s
CC[C@H]1C[C@@H](n2c(=O)nc(-c3cnn(C)c3)c3oc4cc(C#N)c(-c5cn(C)cn5)cc4c32)CCO1 [Compound 1094]	9.1 nM	8.3 ×10⁻⁶ cm/s
CC[C@H]1C[C@@H](n2c(=O)nc(-c3cnn(C)c3)c3oc4ccc(-c5cn(C)cn5)nc4c32)C[C@@H](C)O1 [Compound 1095]	8.6 nM	39.8 ×10⁻⁶ cm/s
CC[C@H]1C[C@@H](n2c(=O)nc(-c3cnn(C)c3)c3oc4c(F)cc(-c5cn(C)cn5)cc4c32)CCO1 [Compound 1097]	3.9 nM	37.1 ×10⁻⁶ cm/s
CC[C@H]1C[C@@H](n2c(=O)nc(-c3cnn(C)c3)c3oc4c(C#N)cc(-c5cn(C)cn5)cc4c32)CCO1 [Compound 1098]	9.9 nM	5.3 ×10⁻⁶ cm/s
CC[C@H]1C[C@@H](n2c(=O)nc(-c3ccc(OC)nc3)c3oc4ccc(-c5cn(C)cn5)nc4c32)CCO1 [Compound 1100]	6.2 nM	29.3 ×10⁻⁶ cm/s
CC[C@H]1C[C@@H](n2c(=O)nc(-c3ccc(OC)cn3)c3oc4ccc(-c5cn(C)cn5)nc4c32)CCO1 [Compound 1101]	17 nM	32 ×10⁻⁶ cm/s
CC[C@H]1C[C@@H](n2c(=O)nc(-c3ccccn3)c3oc4ccc(-c5cn(C)cn5)nc4c32)CCO1 [Compound 1102]	57 nM	24.6 ×10⁻⁶ cm/s
CC[C@H]1C[C@@H](n2c(=O)nc(-c3cnn(C)c3)c3oc4cnc(-c5cn(C)cn5)cc4c32)C[C@@H](C)O1 [Compound 1103]	56 nM	18.5 ×10⁻⁶ cm/s
